Measured values from US7612086B2, “JNK inhibitors” (Eisai R & D Management Co. Ltd., priority 2003, dated 2009).
pIC50: −log10 of the molar value.

Target: JNK3 kinase (Homo sapiens, UniProt P53779)
Assay: JNK3 SPA assay (phosphorylation of GST-c-Jun)
Assay type: biochemical
Conditions: 3.33 μM ATP, [γ-33P] ATP, GST-c-Jun substrate, 30 minutes at room temperature
Description: JNK1, JNK2, JNK3—SPA Assay
• 1. Compound is dissolved in DMSO to a convenient concentration and this is diluted in 10% DMSO to a five times concentrate of the desired starting concentration (frequently 1:100). • 2. 10 μl of 500 mM EDTA is added to alternative wells of the Opti-plate row, which will receive kinase reaction plus DMSO. This creates the negative control. • 3. For the JNK2 and JNK3 assay, compounds are prepared in six 2-fold dilutions with water and each concentration is tested in duplicate. For the JNK1 assay compounds are prepared in four 5-fold dilutions with water which are tested in triplicate. Controls are treated identically. • 4. 20 μl per well of each compound concentration is transferred to an Opti-plate, in duplicate. • 5. 30 μl (JNK2/3 SPA) or 50 μl (JNK1 SPA) of substrate solution (25 mM HEPES pH 7.5, 10 mM magnesium acetate with 3.33 μM ATP (JNK2/3) or 2 μM ATP (JNK1), approximately 7.5 kBq [γ-^33P] ATP, GST-c-Jun, in water) is added to each well. • 6. 50 μl (JNK2/3 SPA) or 30 μl (JNK1 SPA) of kinase solution (JNK in 25 mM HEPES pH 7.5, 10 mM Mg Acetate) is added to each well.
• 7. The plate is incubated for 30 minutes at room temperature. • 8. 100 μl of bead/stop solution is added to each well (5 mg/ml glutathione-PVT-SPA beads, 40 mM ATP in PBS). • 9. Plates are sealed and incubated for 30 minutes at room temperature, centrifuged for 10 minutes at 2500 g and counted. • 10. The IC50 values are calculated as the concentration of the compound being tested at which the phosphorylation of c-Jun is decreased to 50% of the control value.

Sequence of JNK3 kinase (P53779 whole entry): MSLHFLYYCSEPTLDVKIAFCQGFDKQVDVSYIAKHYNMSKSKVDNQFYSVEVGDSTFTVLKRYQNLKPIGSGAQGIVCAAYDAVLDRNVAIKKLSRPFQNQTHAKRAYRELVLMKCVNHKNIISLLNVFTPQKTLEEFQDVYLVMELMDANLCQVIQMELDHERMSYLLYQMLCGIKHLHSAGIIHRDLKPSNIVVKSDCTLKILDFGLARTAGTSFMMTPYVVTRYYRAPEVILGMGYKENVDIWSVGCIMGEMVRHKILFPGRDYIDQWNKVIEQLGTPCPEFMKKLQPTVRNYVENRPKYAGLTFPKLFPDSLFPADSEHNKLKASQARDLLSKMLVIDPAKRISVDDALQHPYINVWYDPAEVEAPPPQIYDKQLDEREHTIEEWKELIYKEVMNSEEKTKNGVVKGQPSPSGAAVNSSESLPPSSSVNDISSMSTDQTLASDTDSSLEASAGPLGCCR

Row | pIC50 | Structure (SMILES)
1 | > 6.30 | N#Cc1c[nH]c2ncc(-c3ccccc3F)cc12
2 | > 6.30 | CN(C)c1ccc(-c2cnc3[nH]cc(C#N)c3c2)cc1
3 | > 6.30 | C#Cc1c[nH]c2ncc(-c3ccc(N(C)C)cc3)cc12
4 | > 6.30 | CCCNC(=O)C#Cc1c[nH]c2ncc(-c3ccccc3Oc3ccccc3)cc12
